Laboratory results from US11572590B2, “Methods for evaluating tumor cell spheroids using 3D microfluidic cell culture device” (Dana-Farber Cancer Institute, Inc., priority 2017, dated 2023).
Like-named read-outs stand apart in the source and are kept apart here.

Tests used:
Assay in all cases: SelectScreen Kinase Profiling, single point inhibition and IC50 for off-target kinases
Type in all cases: biochemical
[1] = molecular target: T1, off-target kinases (Homo sapiens, UniProt O15264); settings: MAPK13 (p38 delta), ZLYTE, ATP Km app
T1 sequence (O15264 1-365): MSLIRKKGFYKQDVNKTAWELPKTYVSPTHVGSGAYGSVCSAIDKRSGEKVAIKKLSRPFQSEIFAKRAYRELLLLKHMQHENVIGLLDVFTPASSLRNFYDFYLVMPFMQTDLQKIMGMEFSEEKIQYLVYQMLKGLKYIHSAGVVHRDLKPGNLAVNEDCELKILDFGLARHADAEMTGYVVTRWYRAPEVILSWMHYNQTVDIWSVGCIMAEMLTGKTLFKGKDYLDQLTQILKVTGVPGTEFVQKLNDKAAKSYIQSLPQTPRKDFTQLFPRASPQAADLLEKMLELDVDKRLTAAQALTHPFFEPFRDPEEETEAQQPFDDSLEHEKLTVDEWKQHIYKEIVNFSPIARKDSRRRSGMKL

[2] = molecular target: T2, off-target kinases (Homo sapiens, UniProt P51817); settings: PRKX, ZLYTE, ATP Km app
T2 sequence (P51817 1-358): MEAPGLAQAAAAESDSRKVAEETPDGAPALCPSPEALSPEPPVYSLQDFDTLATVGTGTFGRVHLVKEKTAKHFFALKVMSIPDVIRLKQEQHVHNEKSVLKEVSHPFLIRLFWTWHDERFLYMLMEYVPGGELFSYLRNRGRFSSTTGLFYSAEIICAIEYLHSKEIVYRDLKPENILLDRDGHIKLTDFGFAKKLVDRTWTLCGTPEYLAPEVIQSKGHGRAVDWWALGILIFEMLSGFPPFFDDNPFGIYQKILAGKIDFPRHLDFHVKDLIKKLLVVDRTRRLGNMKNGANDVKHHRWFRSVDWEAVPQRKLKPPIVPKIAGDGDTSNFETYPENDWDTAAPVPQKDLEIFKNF

[3] = molecular target: T3, off-target kinases (Homo sapiens, UniProt Q8TD19); settings: NEK9, ATP Km app, ZLYTE
T3 sequence (Q8TD19 1-979): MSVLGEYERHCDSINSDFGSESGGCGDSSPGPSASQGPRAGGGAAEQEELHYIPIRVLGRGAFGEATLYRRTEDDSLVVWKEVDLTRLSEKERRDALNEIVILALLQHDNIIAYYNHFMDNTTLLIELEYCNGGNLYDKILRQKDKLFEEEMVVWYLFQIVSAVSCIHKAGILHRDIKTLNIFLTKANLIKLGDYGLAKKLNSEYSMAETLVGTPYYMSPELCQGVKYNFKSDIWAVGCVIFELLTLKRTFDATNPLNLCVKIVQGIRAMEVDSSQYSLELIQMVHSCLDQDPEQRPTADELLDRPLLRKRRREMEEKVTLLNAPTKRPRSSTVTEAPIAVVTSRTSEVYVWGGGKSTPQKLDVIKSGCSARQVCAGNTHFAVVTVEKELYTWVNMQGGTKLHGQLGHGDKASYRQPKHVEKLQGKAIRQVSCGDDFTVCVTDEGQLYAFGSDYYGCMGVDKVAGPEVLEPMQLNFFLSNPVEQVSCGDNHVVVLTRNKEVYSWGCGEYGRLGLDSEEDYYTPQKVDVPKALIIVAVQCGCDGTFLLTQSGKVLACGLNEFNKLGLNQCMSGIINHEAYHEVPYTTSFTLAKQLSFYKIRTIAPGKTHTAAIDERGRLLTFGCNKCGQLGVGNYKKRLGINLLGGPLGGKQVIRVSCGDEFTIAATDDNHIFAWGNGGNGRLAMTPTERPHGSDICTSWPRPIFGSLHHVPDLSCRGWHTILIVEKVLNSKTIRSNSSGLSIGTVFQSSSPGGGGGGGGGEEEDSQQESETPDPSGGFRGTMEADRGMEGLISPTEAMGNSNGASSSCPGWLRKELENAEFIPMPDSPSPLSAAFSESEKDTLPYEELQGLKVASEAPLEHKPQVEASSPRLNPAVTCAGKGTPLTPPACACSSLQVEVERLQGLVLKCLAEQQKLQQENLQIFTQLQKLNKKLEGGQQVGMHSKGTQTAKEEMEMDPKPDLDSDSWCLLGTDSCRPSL

N#Cc1cc(-c2ncnc(Nc3ccc(N4CCN(C5COC5)CC4)cc3)n2)ccc1OC1CCOCC1 [Compound 1, 5-(4-((4-(4-(oxetan-3-yl)piperazin-1-yl)phenyl)amino)-1,3,5-triazin-2-yl)-2-((tetrahydro-2H-pyran-4-yl)oxy)benzonitrile]
inhibition ([1]; read-out: % Inhibition 1): 7% | inhibition ([1]; read-out: % Inhibition 2): 9% | inhibition ([1]; read-out: % Inhibition Avg): 8% | inhibition ([2]; read-out: % Inhibition 1): 22% | inhibition ([2]; read-out: % Inhibition 2): 30% | inhibition ([2]; read-out: % Inhibition Avg): 26% | inhibition ([3]; read-out: % Inhibition 1): 46% | inhibition ([3]; read-out: % Inhibition 2): 45% | inhibition ([3]; read-out: % Inhibition Avg): 46%
